Data on twelve compounds can be found in patent US20260297060A1, “COMPOUNDS FOR THE DEGRADATION OF MUTANT BRAF” (C4 THERAPEUTICS, INC., priority 2023, published 2026).

One may read the GI50 as the concentration that inhibits growth by half.

One test has as its target T1, BRAF V600E (Homo sapiens, UniProt P15056+Q96SW2, V600E).
T1 construct: knock-in of the HiBiT tag to the endogenous BRAF V600E locus; host or cells: A375.10 (A375 clonal line, CRISPR HiBiT knock-in at the endogenous BRAF V600E locus)
The test can be described thus: BRAF V600E HiBiT Degradation Assay. In kind it is cell-based. The method, boiled down:
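Endogenous HiBiT knock-in on BRAF V600E in A375 cells (clone A375.10); 11-point half-log series, top 10 μM, 2, 6 or 24 h at 37° C. Lytic HiBiT luminescence, background-subtracted, normalized to DMSO; 4-parameter fit gives DC50, Emax (residual protein) and IP (inflection point).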

The test system of another test is A375-NRAS^Q61K cells. The test can be described thus: CTGlo Cell Viability Assay, A375-NRAS^Q61K (A375.11) cells, 96 hours. In kind it is cell-based, human. Particulars: A375.11 (A375-NRAS^Q61K) cells; for Emax / CTGlo A375.11 96 hours Emax: lowest % viability achieved. The method, boiled down:
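A375 cells carrying BRAF V600E and NRAS Q61K were seeded at 250 cells/well with a 10-point half-log dose series (max 10 μM final). After 96 h at 37 °C, viability was read as ATP luminescence (CellTiter-Glo), background-subtracted and normalized to DMSO (100%). GI50 from 4-parameter fit; Emax is the lowest % viability.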

Setting [1] is: A375.10 cells, BRAF V600E, 2 hours, inflection point, read-out: HiBiT-Degradation A375.10 BRAF 2 hours IP.
Setting [2] is: A375.10 cells, BRAF V600E, 2 hours, read-out: HiBiT-Degradation A375.10 BRAF 2 hours DC50.
The mark [3] stands for this setting: A375.10 cells, BRAF V600E, 2 hours, residual protein remaining, read-out: HiBiT-Degradation A375.10 BRAF 2 hours Emax.
Where [4] appears, read: A375.10 cells, HiBiT, BRAF V600E, 24 hours, read-out: HiBiT-Degradation A375.10 BRAF 24 hours DC50.
Setting [5] is: A375.10 cells, HiBiT, BRAF V600E, 24 hours, read-out: HiBiT-Degradation A375.10 BRAF 24 hours Emax.
The mark [6] stands for this setting: A375.10 cells, HiBiT, BRAF V600E, 24 hours, read-out: HiBiT-Degradation A375.10 BRAF 24 hours IP.
Setting [7] is: A375.10 cells, BRAF V600E, 2 hours, residual protein remaining.

Read-outs that look alike come from different tables or passages of the source.

T1 sequence (P15056 whole entry V600E): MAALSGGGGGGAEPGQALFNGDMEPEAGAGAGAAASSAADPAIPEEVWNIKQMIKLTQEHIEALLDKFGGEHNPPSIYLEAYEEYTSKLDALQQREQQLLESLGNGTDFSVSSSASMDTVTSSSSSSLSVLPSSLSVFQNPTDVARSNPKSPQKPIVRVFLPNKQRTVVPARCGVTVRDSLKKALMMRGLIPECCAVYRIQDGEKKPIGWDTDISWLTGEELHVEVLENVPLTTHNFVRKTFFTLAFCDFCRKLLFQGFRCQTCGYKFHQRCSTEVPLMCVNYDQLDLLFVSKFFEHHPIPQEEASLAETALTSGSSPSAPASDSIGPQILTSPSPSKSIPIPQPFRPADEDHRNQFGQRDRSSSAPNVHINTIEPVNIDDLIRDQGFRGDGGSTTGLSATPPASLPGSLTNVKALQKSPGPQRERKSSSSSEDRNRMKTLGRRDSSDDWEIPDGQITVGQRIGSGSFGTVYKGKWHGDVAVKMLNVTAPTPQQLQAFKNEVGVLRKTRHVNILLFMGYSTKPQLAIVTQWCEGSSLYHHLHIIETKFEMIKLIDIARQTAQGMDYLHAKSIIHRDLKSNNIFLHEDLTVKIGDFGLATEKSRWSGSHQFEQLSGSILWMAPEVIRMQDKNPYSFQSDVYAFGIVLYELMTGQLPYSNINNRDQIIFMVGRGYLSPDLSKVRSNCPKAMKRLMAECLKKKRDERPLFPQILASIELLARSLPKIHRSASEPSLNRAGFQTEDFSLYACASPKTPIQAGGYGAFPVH
T1 sequence (Q96SW2 whole entry): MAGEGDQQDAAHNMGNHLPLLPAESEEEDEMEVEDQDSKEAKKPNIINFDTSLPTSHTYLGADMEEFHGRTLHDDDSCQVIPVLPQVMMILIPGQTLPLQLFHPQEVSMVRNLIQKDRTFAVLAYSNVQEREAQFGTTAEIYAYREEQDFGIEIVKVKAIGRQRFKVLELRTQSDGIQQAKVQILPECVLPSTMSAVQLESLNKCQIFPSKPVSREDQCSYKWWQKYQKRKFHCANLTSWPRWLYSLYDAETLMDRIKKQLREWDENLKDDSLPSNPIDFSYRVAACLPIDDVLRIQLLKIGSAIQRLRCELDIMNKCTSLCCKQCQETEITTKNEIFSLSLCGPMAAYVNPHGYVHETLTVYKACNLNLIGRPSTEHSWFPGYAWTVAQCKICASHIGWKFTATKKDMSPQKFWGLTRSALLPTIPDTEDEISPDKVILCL
T1 sequence (Q16531 whole entry partner): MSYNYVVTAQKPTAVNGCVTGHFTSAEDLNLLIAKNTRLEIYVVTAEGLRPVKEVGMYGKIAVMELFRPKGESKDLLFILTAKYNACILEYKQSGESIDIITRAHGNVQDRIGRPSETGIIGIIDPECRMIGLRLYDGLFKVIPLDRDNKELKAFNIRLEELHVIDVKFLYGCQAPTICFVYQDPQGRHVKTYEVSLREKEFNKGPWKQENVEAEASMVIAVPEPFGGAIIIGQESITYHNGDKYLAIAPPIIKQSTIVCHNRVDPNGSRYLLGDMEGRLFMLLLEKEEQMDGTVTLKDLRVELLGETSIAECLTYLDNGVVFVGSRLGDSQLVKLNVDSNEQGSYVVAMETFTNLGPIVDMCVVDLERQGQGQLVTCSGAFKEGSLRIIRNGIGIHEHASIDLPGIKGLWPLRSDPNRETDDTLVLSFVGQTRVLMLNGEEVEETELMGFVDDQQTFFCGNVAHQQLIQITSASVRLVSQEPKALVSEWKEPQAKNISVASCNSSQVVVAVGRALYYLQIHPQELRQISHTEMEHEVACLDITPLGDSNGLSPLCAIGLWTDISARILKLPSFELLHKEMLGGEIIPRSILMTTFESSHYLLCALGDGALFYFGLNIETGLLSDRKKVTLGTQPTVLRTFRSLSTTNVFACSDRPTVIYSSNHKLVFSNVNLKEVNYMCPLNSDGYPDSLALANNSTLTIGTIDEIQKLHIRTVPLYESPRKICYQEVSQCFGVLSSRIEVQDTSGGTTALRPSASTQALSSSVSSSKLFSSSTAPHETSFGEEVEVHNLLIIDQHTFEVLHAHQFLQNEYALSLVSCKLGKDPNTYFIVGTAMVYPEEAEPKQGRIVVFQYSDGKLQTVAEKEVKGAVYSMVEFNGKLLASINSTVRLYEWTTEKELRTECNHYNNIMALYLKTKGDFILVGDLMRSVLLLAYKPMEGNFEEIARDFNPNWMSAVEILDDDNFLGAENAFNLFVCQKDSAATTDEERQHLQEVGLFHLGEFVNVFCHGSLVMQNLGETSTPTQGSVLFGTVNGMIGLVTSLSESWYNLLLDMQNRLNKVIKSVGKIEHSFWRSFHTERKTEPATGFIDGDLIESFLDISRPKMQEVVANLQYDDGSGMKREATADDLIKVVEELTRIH

On to `CCN(C)S(=O)(=O)Nc1ccc(F)c(Oc2ccc3ncn([C@@H]4COC5(C4)CN(C4CCC(c6cc7c(cc6F)c(N6CCC(=O)NC6=O)nn7C)CC4)C5)c(=O)c3c2)c1C#N` (single isomer, unassigned) [Compound 237], for which the DC50 at BRAF V600E (setting [1]) and on BRAF V600E (setting [2]) was below 1000 nM each time. For the same compound, the Emax is below 50% on BRAF V600E (setting [3]) and 50 to 90% with A375-NRAS^Q61K cells (Homo sapiens, 96 h). This compound came in with a GI50 in the test on A375-NRAS^Q61K cells above 10000 nM.

For the compound `CCN(C)S(=O)(=O)Nc1ccc(F)c(Oc2ccc3ncc(C4CC5(CCN(C6CCN(c7cc8c(cc7F)c(N7CCC(=O)NC7=O)nn8C)CC6)CC5)C4)nc3c2)c1C#N` [Compound 256, 7-[2-cyano-3-[[ethyl(methyl)sulfamoyl]amino]-6-fluoro-phenoxy]-2-[7-[1-[3-(2,4-dioxohexahydropyrimidin-1-yl)-5-fluoro-1-methyl-indazol-6-yl]-4-piperidyl]-7-azaspiro[3.5]nonan-2-yl]quinoxaline], the DC50 at BRAF V600E (setting [1]) and on BRAF V600E (setting [2]) was below 1000 nM each time. The Emax on BRAF V600E (setting [3]) is below 50%; in the test with A375-NRAS^Q61K cells (Homo sapiens, 96 h), 50 to 90%. Besides, the GI50 in the test on A375-NRAS^Q61K cells (Homo sapiens, 96 h) is below 1000 nM.

Take `Cn1nc(N2CCC(=O)NC2=O)c2cc(F)c(N3CC4(CC(N5CCC6(CC5)C[C@@H](n5cnc7ccc(Oc8c(F)ccc(NS(=O)(=O)C9CC9)c8C#N)cc7c5=O)CO6)C4)C3)cc21` [Compound 234, N-[2-cyano-3-[3-[(3R)-8-[2-[3-(2,4-dioxohexahydropyrimidin-1-yl)-5-fluoro-1-methyl-indazol-6-yl]-2-azaspiro[3.3]heptan-6-yl]-1-oxa-8-azaspiro[4.5]decan-3-yl]-4-oxo-quinazolin-6-yl]oxy-4-fluoro-phenyl]cyclopropanesulfonamide]: the DC50 at BRAF V600E (setting [1]), on BRAF V600E (setting [2]), on BRAF V600E (setting [4]) and at BRAF V600E (setting [6]) was below 1000 nM throughout. The Emax was below 50% on BRAF V600E (setting [3]); below 50% on BRAF V600E (setting [5]); 50 to 90% with A375-NRAS^Q61K cells (Homo sapiens, 96 h). The GI50 with A375-NRAS^Q61K cells (Homo sapiens, 96 h) was below 1000 nM.

For `CCN(C)S(=O)(=O)Nc1ccc(F)c(Oc2ccc3ncn([C@H]4COC5(CCC(N6C7COCC6CC(c6cc8c(cc6F)c(N6CCC(=O)NC6=O)nn8C)C7)CC5)C4)c(=O)c3c2)c1C#N` (single isomer, unassigned) [Compound 155], the DC50 at BRAF V600E (setting [1]) and at BRAF V600E (setting [2]) was below 1000 nM each time. In addition, the Emax at BRAF V600E (setting [3]) lay in the range of 50 to 90%; with A375-NRAS^Q61K cells (Homo sapiens, 96 h), 50 to 90%. In the test on A375-NRAS^Q61K cells (Homo sapiens, 96 h), the GI50 was above 10000 nM.

With `CCN(C)S(=O)(=O)Nc1ccc(F)c(Oc2ccc3ncc(CCC4CCN(C5CCC(c6cc7c(cc6F)c(N6CCC(=O)NC6=O)nn7C)CC5)CC4)nc3c2)c1C#N` (single isomer, unassigned) [Compound 129, 7-[2-cyano-3-[[ethyl(methyl)sulfamoyl]amino]-6-fluoro-phenoxy]-2-[2-[1-[4-[3-(2,4-dioxohexahydropyrimidin-1-yl)-5-fluoro-1-methyl-indazol-6-yl]cyclohexyl]-4-piperidyl]ethyl]quinoxaline], the DC50 on BRAF V600E (setting [1]) is below 1000 nM. Also, the DC50 at BRAF V600E (setting [2]) was below 1000 nM. For the same compound, the “HiBiT-Degradation A375.10 BRAF 2 hours Emax” value at BRAF V600E (setting [7]) is “** (<90% and >50%)”. In addition, in the test with A375-NRAS^Q61K cells, the GI50 fell in the range of 1000 to 10000 nM; the “CTGlo A375.11 96 hours Emax” value was “** (<90% and >50%)”.

As for `CO[C@@H]1CCN(S(=O)(=O)Nc2ccc(F)c(Oc3ccc4ncc(C5CC6(CCN(C7CCC(c8cc9c(cc8F)c(N8CCC(=O)NC8=O)nn9C)CC7)CC6)C5)nc4c3)c2C#N)C1` (single isomer, unassigned) [Compound 285], the DC50 at BRAF V600E (setting [2]) is below 1000 nM. In the test with A375-NRAS^Q61K cells, this compound had a GI50 below 1000 nM.

As for `CCN(C)S(=O)(=O)Nc1ccc(F)c(Oc2ccc3ncn([C@H]4COC5(C4)CN(C4CC6(C4)CN(c4cc7c(cc4F)c(N4CCC(=O)NC4=O)nn7C)C6)C5)c(=O)c3c2)c1C#N` [Compound 310, (7R)-7-[6-[2-cyano-3-[[ethyl(methyl)sulfamoyl]amino]-6-fluoro-phenoxy]-4-oxo-quinazolin-3-yl]-2-[2-[3-(2,4-dioxohexahydropyrimidin-1-yl)-5-fluoro-1-methyl-indazol-6-yl]-2-azaspiro[3.3]heptan-6-yl]-5-oxa-2-azaspiro[3.4]octane], the DC50 on BRAF V600E (setting [1]), at BRAF V600E (setting [2]), at BRAF V600E (setting [4]) and on BRAF V600E (setting [6]) was below 1000 nM throughout. Besides, the Emax at BRAF V600E (setting [3]) was below 50%; at BRAF V600E (setting [5]), below 50%; in the test on A375-NRAS^Q61K cells (Homo sapiens, 96 h), 50 to 90%. For the same compound, the GI50 in the test on A375-NRAS^Q61K cells (Homo sapiens, 96 h) is 1000 to 10000 nM.

For `CCN(C)S(=O)(=O)Nc1ccc(F)c(Oc2ccc3ncn([C@@H]4COC5(C4)CN(C4CC6(C4)CN(c4cc7c(cc4F)c(N4CCC(=O)NC4=O)nn7C)C6)C5)c(=O)c3c2)c1C#N` [Compound 311, (7S)-7-[6-[2-cyano-3-[[ethyl(methyl)sulfamoyl]amino]-6-fluoro-phenoxy]-4-oxo-quinazolin-3-yl]-2-[2-[3-(2,4-dioxohexahydropyrimidin-1-yl)-5-fluoro-1-methyl-indazol-6-yl]-2-azaspiro[3.3]heptan-6-yl]-5-oxa-2-azaspiro[3.4]octane], the DC50 at BRAF V600E (setting [1]) is below 1000 nM; at BRAF V600E (setting [2]) it was 1000 to 10000 nM; on BRAF V600E (setting [4]) it was below 1000 nM; on BRAF V600E (setting [6]), below 1000 nM. Besides, the Emax on BRAF V600E (setting [3]) was 50 to 90%; on BRAF V600E (setting [5]) it was below 50%; in the test on A375-NRAS^Q61K cells (Homo sapiens, 96 h), 50 to 90%. In the test with A375-NRAS^Q61K cells (Homo sapiens, 96 h), this compound had a GI50 of 1000 to 10000 nM.

Regarding `CCN(C)S(=O)(=O)Nc1ccc(F)c(Oc2ccc3ncc(OCC4(F)CCN(C5CCC(c6cc7c(cc6F)c(N6CCC(=O)NC6=O)nn7C)CC5)CC4)nc3c2)c1C#N` (single isomer, unassigned) [Compound 229, 7-[2-cyano-3-[[ethyl(methyl)sulfamoyl]amino]-6-fluoro-phenoxy]-2-[[1-[4-[3-(2,4-dioxohexahydropyrimidin-1-yl)-5-fluoro-1-methyl-indazol-6-yl]cyclohexyl]-4-fluoro-4-piperidyl]methoxy]quinoxaline], on BRAF V600E (setting [1]), the DC50 is below 1000 nM. The DC50 on BRAF V600E (setting [2]) is below 1000 nM. For the same compound, at BRAF V600E (setting [7]), the “HiBiT-Degradation A375.10 BRAF 2 hours Emax” value is listed as “*** (<=50%)”. In the test on A375-NRAS^Q61K cells, the GI50 is below 1000 nM; the “CTGlo A375.11 96 hours Emax” value is “** (<90% and >50%)”.

Take `CCN(C)S(=O)(=O)Nc1ccc(F)c(Oc2ccc3ncn(C4CCC5(CC4)CCN(C4CCC(c6cc7c(cc6F)c(N6CCC(=O)NC6=O)nn7C)CC4)CC5)c(=O)c3c2)c1C#N` (single isomer, unassigned) [Compound 13, 9-[6-[2-cyano-3-[[ethyl(methyl)sulfamoyl]amino]-6-fluoro-phenoxy]-4-oxo-quinazolin-3-yl]-3-[4-[3-(2,4-dioxohexahydropyriimidin-1-yl)-5-fluoro-1-methyl-indazol-6-yl]cyclohexyl]-3-azaspiro[5.5]undecane]: the DC50 at BRAF V600E (setting [1]) was below 1000 nM. Besides, the DC50 at BRAF V600E (setting [2]) is below 1000 nM. In addition, the “HiBiT-Degradation A375.10 BRAF 2 hours Emax” value at BRAF V600E (setting [7]) is recorded as “*** (<=50%)”. In the test with A375-NRAS^Q61K cells, the GI50 was above 10000 nM; the “CTGlo A375.11 96 hours Emax” value is “** (<90% and >50%)”.

In the case of `Cn1nc(N2CCC(=O)NC2=O)c2cc(F)c(C3CCC(N4CCC5(CC4)CC(n4cnc6ccc(Oc7c(F)ccc(NS(=O)(=O)C8CCCC8)c7C#N)cc6c4=O)C5)CC3)cc21` (single isomer, unassigned) [Compound 94, N-[2-cyano-3-[3-[7-[4-[3-(2,4-dioxohexahydropyrimidin-1-yl)-5-fluoro-1-methyl-indazol-6-yl]cyclohexyl]-7-azaspiro[3.5]nonan-2-yl]-4-oxo-quinazolin-6-yl]oxy-4-fluoro-phenyl]cyclopentanesulfonamide], on BRAF V600E, the “HiBiT-Degradation A375.10 BRAF 2 hours Emax” value was “*** (<=50%)”. Besides, the DC50 on BRAF V600E (setting [1]) was below 1000 nM; at BRAF V600E (setting [2]) it was below 1000 nM; on BRAF V600E (A375.10 cells, BRAF V600E, 6 hours, inflection point, read-out: HiBiT-Degradation A375.10 BRAF 6 hours IP) it was below 1000 nM; on BRAF V600E (A375.10 cells, BRAF V600E, 6 hours, read-out: HiBiT-Degradation A375.10 BRAF 6 hours DC50), below 1000 nM; at BRAF V600E (setting [4]), below 1000 nM; on BRAF V600E (setting [6]), below 1000 nM. Further, the “HiBiT-Degradation A375.10 BRAF 6 hours Emax” value at BRAF V600E (A375.10 cells, BRAF V600E, 6 hours, residual protein remaining) is recorded as “*** (<=50%)”. The “HiBiT-Degradation A375.10 BRAF 24 hours Emax” value on BRAF V600E (A375.10 cells, HiBiT, BRAF V600E, 24 hours) is recorded as “*** (<=50%)”. The same compound yielded a GI50 in the test with A375-NRAS^Q61K cells below 1000 nM. The “CTGlo A375.11 96 hours Emax” value with A375-NRAS^Q61K cells is reported as “*** (<=50%)”.

Turning to `CCN(C)S(=O)(=O)Nc1ccc(F)c(Nc2ccc3ncn([C@H]4COC5(CCN(C6CCC(c7ccc(NC8CCC(=O)NC8=O)cc7F)CC6)CC5)C4)c(=O)c3c2)c1C#N` (single isomer, unassigned) [Compound 56], the DC50 on BRAF V600E (setting [1]) and at BRAF V600E (setting [2]) was below 1000 nM each time. Moreover, the Emax is below 50% on BRAF V600E (setting [3]) and 50 to 90% with A375-NRAS^Q61K cells (Homo sapiens, 96 h). In the test with A375-NRAS^Q61K cells, this compound gave a GI50 above 10000 nM.
